Experimental data from ChEMBL document CHEMBL4680116, “Development of benzimidazole-based derivatives as antimicrobial agents and their synergistic effect with colistin against gram-negative bacteria” (Eur J Med Chem, 2020).
Values after ≈ are worked out from the molar mass of the structure shown.

Key:
[1] = tested on: Escherichia coli; assay: Antimicrobial activity against Escherichia coli JW55031 TolC mutant assessed as reduction in microbial growth incubated for 18 to 20 hrs by broth microdilution method
[2] = tested on: Acinetobacter baumannii; assay: Synergistic antibacterial activity against Acinetobacter baumannii ATCC 19606 in presence of 0.25 times MIC of colistin incubated for 18 to 20 hrs by broth microdilution method; format: functional; settings: time 18-20 hrs
[3] = tested on: Escherichia coli; assay: Antibacterial activity against wild type Escherichia coli BW25113 incubated for 18 to 20 hrs by broth microdilution method; format: functional; settings: time 18-20 hrs
[4] = tested on: Pseudomonas aeruginosa; assay: Synergistic antibacterial activity against Pseudomonas aeruginosa ATCC 15442 in presence of 0.25 times MIC of colistin incubated for 18 to 20 hrs by broth microdilution method; format: functional; settings: time 18-20 hrs
[5] = tested on: Escherichia coli; assay: Antibacterial activity against Escherichia coli ATCC 25922 incubated for 18 to 20 hrs by broth microdilution method; format: functional; settings: time 18-20 hrs
[6] = tested on: Escherichia coli; assay: Synergistic antibacterial activity against Escherichia coli ATCC 25922 in presence of 0.25 times MIC of colistin incubated for 18 to 20 hrs by broth microdilution method; format: functional; settings: time 18-20 hrs
[7] = tested on: Klebsiella pneumoniae; assay: Synergistic antibacterial activity against Klebsiella pneumoniae ATCC 1706 in presence of 0.25 times MIC of colistin incubated for 18 to 20 hrs by broth microdilution method; format: functional; settings: time 18-20 hrs
[8] = tested on: Pseudomonas aeruginosa; assay: Antibacterial activity against Pseudomonas aeruginosa ATCC 15442 incubated for 18 to 20 hrs by broth microdilution method; format: functional; settings: time 18-20 hrs
[9] = tested on: Escherichia coli; assay: Synergistic antibacterial activity against wild type Escherichia coli BW25113 in presence of 0.25 times MIC of colistin incubated for 18 to 20 hrs by broth microdilution method; format: functional; settings: time 18-20 hrs
[10] = tested on: Klebsiella pneumoniae; assay: Antibacterial activity against Klebsiella pneumoniae ATCC 1706 incubated for 18 to 20 hrs by broth microdilution method; format: functional; settings: time 18-20 hrs
[11] = tested on: Acinetobacter baumannii; assay: Antibacterial activity against Acinetobacter baumannii ATCC 19606 incubated for 18 to 20 hrs by broth microdilution method; format: functional; settings: time 18-20 hrs
[12] = tested on: Vero; assay: Cytotoxicity against African green monkey Vero cells assessed as reduction in cell viability incubated for 2 hrs by MTS assay; format: cell-based; settings: chlorocebus sabaeus
[13] = tested on: Caco-2; assay: Cytotoxicity against human Caco-2 cells assessed as reduction in cell viability incubated for 2 hrs by MTS assay; format: cell-based; settings: caco-2, 2 h

Nc1cccc(-c2nc3ccccc3n2Cc2ccc(Cl)c(Cl)c2)c1
MIC [1]: 4 µg/mL

CS(=O)(=O)Nc1cccc(-c2nc3ccccc3n2CC2CCCCC2)c1
MIC [1]: 16 µg/mL

CS(=O)(=O)Nc1cccc(-c2nc3ccccc3n2Cc2ccc(Cl)cc2Cl)c1
MIC [1]: 8 µg/mL

CC[C@H]1OC(=O)[C@H](C)[C@@H](O[C@H]2C[C@@](C)(OC)[C@@H](O)[C@H](C)O2)[C@H](C)[C@@H](O[C@@H]2O[C@H](C)C[C@H](N(C)C)[C@H]2O)[C@](C)(O)C[C@@H](C)C(=O)[C@H](C)[C@@H](O)[C@]1(C)O [ERYTHROMYCIN]
MIC [2]: 0.5 µg/mL
MIC [3]: 16 µg/mL (≈ 21.8 µM)
MIC [4]: 2 µg/mL
MIC [5]: 16 µg/mL (≈ 21.8 µM)
MIC [6]: 1 µg/mL
MIC [7]: 2 µg/mL
MIC [8]: 64 µg/mL (≈ 87.2 µM)
MIC [9]: 1 µg/mL
MIC [10]: 64 µg/mL (≈ 87.2 µM)
MIC [11]: 16 µg/mL (≈ 21.8 µM)

CS(=O)(=O)Nc1cccc(-c2nc3ccccc3n2Cc2ccc(F)cc2)c1
MIC [1]: 32 µg/mL

CS(=O)(=O)Nc1cccc(-c2nc3ccccc3n2Cc2ccc(C(F)(F)F)cc2)c1
MIC [1]: 16 µg/mL

Cc1ccc(Cn2c(-c3ccc(NS(C)(=O)=O)cc3)nc3ccccc32)cc1
MIC [1]: > 128 µg/mL

Cc1cccc(Cn2c(-c3cccc(NS(C)(=O)=O)c3)nc3ccccc32)c1
MIC [1]: 16 µg/mL

Cc1ccc(Cn2c(-c3ccc(Cl)cc3)nc3ccccc32)cc1
MIC [1]: > 128 µg/mL

Cc1ccc(Cn2c(-c3cccc(N)c3)nc3ccccc32)cc1
MIC [1]: 4 µg/mL

Nc1cccc(-c2nc3ccccc3n2Cc2ccc(C(F)(F)F)cc2)c1
MIC [1]: 8 µg/mL

CS(=O)(=O)Nc1cccc(-c2nc3ccccc3n2Cc2ccccc2)c1
MIC [1]: 16 µg/mL

FC(F)(F)c1ccc(Cn2c(-c3ccccc3)nc3ccccc32)cc1
MIC [1]: 8 µg/mL

CCCCCCCCCC(=O)N[C@@H](Cc1c[nH]c2ccccc12)C(=O)N[C@H](CC(N)=O)C(=O)N[C@@H](CC(=O)O)C(=O)N[C@@H]1C(=O)NCC(=O)N[C@@H](CCCN)C(=O)N[C@@H](CC(=O)O)C(=O)N[C@H](C)C(=O)N[C@@H](CC(=O)O)C(=O)NCC(=O)N[C@H](CO)C(=O)N[C@@H]([C@H](C)CC(=O)O)C(=O)N[C@@H](CC(=O)c2ccccc2N)C(=O)O[C@@H]1C
MIC [2]: > 128 µg/mL
MIC [3]: > 128 µg/mL
MIC [4]: > 128 µg/mL
MIC [5]: > 128 µg/mL
MIC [6]: > 128 µg/mL
MIC [7]: > 128 µg/mL
MIC [8]: > 128 µg/mL
MIC [9]: > 128 µg/mL
MIC [10]: > 128 µg/mL
MIC [11]: > 128 µg/mL

CC(=O)Nc1cccc(-c2nc3ccccc3n2Cc2ccc(Cl)cc2)c1
MIC [1]: > 128 µg/mL

CS(=O)(=O)Nc1cccc(-c2nc3ccccc3n2Cc2ccc(OC(F)(F)F)cc2)c1
MIC [1]: > 128 µg/mL

Cc1ccc(Cn2c(-c3ccc(C#N)cc3)nc3ccccc32)cc1
MIC [1]: > 128 µg/mL

CS(=O)(=O)Nc1cccc(-c2nc3ccccc3n2Cc2cccc(F)c2)c1
MIC [1]: 64 µg/mL

Cc1ccc(Cn2c(-c3cccc(C#N)c3)nc3ccccc32)cc1
MIC [1]: 16 µg/mL

Cc1ccc(Cn2c(-c3ccc(C(F)(F)F)cc3)nc3ccccc32)cc1
MIC [1]: 128 µg/mL

CS(=O)(=O)Nc1cccc(-c2nc3ccccc3n2Cc2ccc(Cl)cc2)c1
MIC [1]: 8 µg/mL

CS(=O)(=O)Nc1cccc(-c2nc3ccccc3n2Cc2cccc(Cl)c2)c1
MIC [1]: 16 µg/mL

Cc1ccc(Cn2c(-c3cccc(C(F)(F)F)c3)nc3ccccc32)cc1
MIC [1]: > 128 µg/mL

COc1ccc(-c2nc3ccccc3n2Cc2ccc(C)cc2)cc1
MIC [1]: > 128 µg/mL

CS(=O)(=O)Nc1cccc(-c2nc3ccccc3n2Cc2ccc(Br)cc2)c1
MIC [1]: 4 µg/mL

Cc1ccc(Cn2c(-c3ccccc3)nc3ccccc32)cc1
MIC [1]: 8 µg/mL

CS(=O)(=O)Nc1cccc(-c2nc3ccccc3n2Cc2cccc(C#N)c2)c1
MIC [1]: > 128 µg/mL

CS(=O)(=O)Nc1cccc(-c2nc3ccccc3n2Cc2ccc(Cl)c(Cl)c2)c1
MIC [1]: 8 µg/mL

Cc1ccc(Cn2c(-c3cccc([N+](=O)[O-])c3)nc3ccccc32)cc1
MIC [1]: > 128 µg/mL

CS(=O)(=O)Nc1cccc(-c2nc3ccccc3n2Cc2cccc3ccccc23)c1
MIC [1]: > 128 µg/mL

Cc1ccc(Cn2c(-c3cccc(NS(C)(=O)=O)c3)nc3ccccc32)cc1
Activity [12]: Non-Toxic
MIC [2]: 8 µg/mL
MIC [1]: 2 µg/mL
MIC [3]: > 128 µg/mL
MIC [4]: 16 µg/mL
MIC [5]: > 128 µg/mL
MIC [6]: 16 µg/mL
MIC [7]: 8 µg/mL
MIC [8]: > 128 µg/mL
Activity [13]: Non-Toxic
MIC [9]: 16 µg/mL
MIC [10]: > 128 µg/mL
MIC [11]: > 128 µg/mL

CC(=O)Nc1cccc(-c2nc3ccccc3n2Cc2ccc(C)cc2)c1
MIC [1]: > 128 µg/mL

CC(=O)NC[C@H]1CN(c2ccc(N3CCOCC3)c(F)c2)C(=O)O1 [LINEZOLID]
MIC [2]: > 128 µg/mL
MIC [1]: 8 µg/mL
MIC [3]: 128 µg/mL (≈ 379 µM)
MIC [4]: > 128 µg/mL
MIC [5]: 128 µg/mL (≈ 379 µM)
MIC [6]: 128 µg/mL
MIC [7]: > 128 µg/mL
MIC [8]: > 128 µg/mL
MIC [9]: 128 µg/mL
MIC [10]: > 128 µg/mL
MIC [11]: > 128 µg/mL

c1ccc(Cn2c(-c3ccccc3)nc3ccccc32)cc1
MIC [1]: 16 µg/mL

CS(=O)(=O)Nc1cccc(-c2nc3ccccc3n2Cc2ccc(C#N)cc2)c1
MIC [1]: 64 µg/mL

Cc1ccc(Cn2c(-c3ccc(OC(F)(F)F)cc3)nc3ccccc32)cc1
MIC [1]: > 128 µg/mL
